Experimental data published in paper PMC10600881 (ACS Omega, 2023).
Values after ≈ are worked out from the molar mass of the structure shown. Where two headings read alike, the source gives them in different places.

Experiments:
[1] = system: B. subtilis (ATCC 9372); assay: Broth microdilution assay, MIC; assay type: cell-based; conditions: Bacillus subtilis, ATCC9372, read-out: Minimum Inhibitory Concentration
[2] = system: E. coli (ATCC25922); assay: Broth microdilution assay, MIC; assay type: cell-based; conditions: Escherichia coli, ATCC25922, read-out: Minimum Inhibitory Concentration
[3] = system: S. aureus (ATCC 25923); assay: Broth microdilution assay, MIC; assay type: cell-based; conditions: Staphylococcus aureus, ATCC25923, read-out: Minimum Inhibitory Concentration
[4] = system: P. aeruginosa (ATCC 29853); assay: Broth microdilution assay, MIC/MBC; assay type: cell-based; conditions: for fold more efficient than amoxicillin / bactericidal or bacteriostatic effect: P. aeruginosa; for fold more efficient than amoxicillin: from MICs; for MBC / MIC: Pseudomonas aeruginosa; for bactericidal or bacteriostatic effect: MBC/MIC ≤ 4 = bactericidal
[5] = system: M. tuberculosis (RCMB 010126); assay: Microplate alamar blue assay; assay type: cell-based, Mycobacterium tuberculosis; conditions: Mycobacterium tuberculosis, RCMB010126, sensitive Mycobacterium tuberculosis (RCMB 010126), MABA
[6] = system: C. albicans (ATCC 10231); assay: Broth microdilution assay, antifungal MIC/MFC; assay type: cell-based, Candida albicans; conditions: for ratio (MFC/MIC): C. albicans (ATCC 10231); for MFC / MIC: Candida albicans; for fungicidal or fungistatic behavior: C. albicans, MFC/MIC > 4 = fungistatic
[7] = ATCC29853, read-out: Minimum Inhibitory Concentration
[8] = ATCC10231, read-out: Minimum Inhibitory Concentration

| SMILES | MIC [1] [µg/mL] | MIC [2] [µg/mL] | MIC [3] [µg/mL] | ratio (MBC/MIC) ([4]; P. aeruginosa (ATCC 29853)) | fold more efficient than amoxicillin [4] | MBC ([4]; ATCC29853) [µg/mL] | MIC ([4]; ATCC29853) [µg/mL] | MIC [4, 7] [µg/mL] | MIC [5] [µg/mL] | ratio (MFC/MIC) [6] | MFC ([6]; ATCC10231) [µg/mL] | MIC ([6]; ATCC10231) [µg/mL] | MIC [6, 8] [µg/mL] | bactericidal or bacteriostatic effect [4] | fungicidal or fungistatic behavior [6] | Minimum Inhibitory Concentration ([4]; P. aeruginosa (ATCC 29853), Gram-negative, Table 1) [µg/mL] |
| --- | --- | --- | --- | --- | --- | --- | --- | --- | --- | --- | --- | --- | --- | --- | --- | --- |
| COc1ccc(C=C2SC(N3N=C(c4cccs4)CC3c3cccs3)=NC2=O)cc1 (stereo not shown) [8a, 5-(4-Methoxybenzylidene)-2-(4,5-dihydro-3,5-di(thiophen-2-yl)pyrazol-1-yl)thiazol-4(5H)-one] | 125 (≈ 277 µM) | 125 (≈ 277 µM) | 250 (≈ 554 µM) | 8 | ~16 fold | 250 (≈ 554 µM) | 31.2 (≈ 69.2 µM) | 31.2 (≈ 69.2 µM) | 31.2 (≈ 69.2 µM) | 2 | 125 (≈ 277 µM) | 62.5 (≈ 138 µM) | 62.5 (≈ 138 µM) |  |  |  |
| CCOC(=O)c1sc(N2N=C(c3cccs3)CC2c2cc(OC)ccc2OC)nc1C (stereo not shown) [5b, Ethyl 2-(4,5-dihydro-5-(2,5-dimethoxyphenyl)-3-(thiophen-2-yl)pyrazol-1-yl)-4-methylthiazole-5-carboxylate] | 125 (≈ 273 µM) | 125 (≈ 273 µM) | 62.5 (≈ 137 µM) | 2 | ~16 fold | 62.2 (≈ 136 µM) | 31.2 (≈ 68.3 µM) | 31.2 (≈ 68.3 µM) | 31.2 (≈ 68.3 µM) | 2 | 125 (≈ 273 µM) | 62.5 (≈ 137 µM) | 62.5 (≈ 137 µM) | bactericidal |  |  |
| COc1ccc(OC)c(C2CC(c3cccs3)=NN2c2nc(-c3ccccc3)cs2)c1 (stereo not shown) [4b, 4,5-Dihydro-5-(2,5-dimethoxyphenyl)-1-(4-phenylthiazol-2-yl)-3-(thiophen-2-yl)-1H-pyrazole] | 250 (≈ 559 µM) | 125 (≈ 279 µM) | 250 (≈ 559 µM) | 16 | approximately 32 fold | 250 (≈ 559 µM) | 15.6 (≈ 34.9 µM) | 15.6 (≈ 34.9 µM) | 31.2 (≈ 69.8 µM) | 8 | 500 (≈ 1120 µM) | 62.5 (≈ 140 µM) | 62.5 (≈ 140 µM) |  | fungistatic |  |
| c1ccc(-c2csc(N3N=C(c4cccs4)CC3c3cccs3)n2)cc1 (stereo not shown) [4a, 4,5-Dihydro-1-(4-phenylthiazol-2-yl)-3,5-di(thiophen-2-yl)-1H-pyrazole] | 15.6 (≈ 39.7 µM) | 125 (≈ 318 µM) | 250 (≈ 635 µM) | 4 |  | 500 (≈ 1270 µM) | 125 (≈ 318 µM) | 125 (≈ 318 µM) | 62.5 (≈ 159 µM) | 4 | 500 (≈ 1270 µM) | 125 (≈ 318 µM) | 125 (≈ 318 µM) | bactericidal |  |  |
| CC1(C)S[C@@H]2[C@H](NC(=O)[C@H](N)c3ccc(O)cc3)C(=O)N2[C@H]1C(=O)O [amoxicillin, reference compound] | 31.2 (≈ 85.5 µM) | 62.5 (≈ 171 µM) | 7.8 (≈ 21.3 µM) | >1 |  | > 500 | > 500 | > 500 |  |  |  |  |  |  |  | >500 |
| COc1ccc(OC)c(C2CC(c3cccs3)=NN2C2=NC(=O)C(C)S2)c1 (stereo not shown) [7b, 2-(4,5-Dihydro-5-(2,5-dimethoxyphenyl)-3-(thiophen-2-yl)pyrazol-1-yl)-5-methylthiazol-4(5H)-one] | 125 (≈ 311 µM) | 125 (≈ 311 µM) | 250 (≈ 623 µM) | 2 |  | 250 (≈ 623 µM) | 125 (≈ 311 µM) | 125 (≈ 311 µM) | 62.5 (≈ 156 µM) | 8 | 500 (≈ 1250 µM) | 62.5 (≈ 156 µM) | 62.5 (≈ 156 µM) | bactericidal | fungistatic |  |
| CC1SC(N2N=C(c3cccs3)CC2c2cccs2)=NC1=O (stereo not shown) [7a, 2-(4,5-Dihydro-3,5-di(thiophen-2-yl)pyrazol-1-yl)-5-methylthiazol-4(5H)-one] | 125 (≈ 360 µM) | 125 (≈ 360 µM) | > 500 | >1 |  | > 500 | > 500 | > 500 | 62.5 (≈ 180 µM) | 4 | 250 (≈ 719 µM) | 62.5 (≈ 180 µM) | 62.5 (≈ 180 µM) |  |  |  |
| COc1ccc(OC)c(C2CC(c3cccs3)=NN2c2nc(C)cs2)c1 (stereo not shown) [3b, 4,5-Dihydro-5-(2,5-dimethoxyphenyl)-1-(4-methylthiazol-2-yl)-3-(thiophen-2-yl)-1H-pyrazole] | 125 (≈ 324 µM) | 125 (≈ 324 µM) | 250 (≈ 648 µM) | 8 | approximately 32 fold | 125 (≈ 324 µM) | 15.6 (≈ 40.5 µM) | 15.6 (≈ 40.5 µM) | 7.81 (≈ 20.3 µM) | 8 | 250 (≈ 648 µM) | 31.2 (≈ 81.1 µM) | 31.2 (≈ 81.1 µM) |  | fungistatic |  |
| Cc1csc(N2N=C(c3cccs3)CC2c2cccs2)n1 (stereo not shown) [3a, 4,5-Dihydro-1-(4-methylthiazol-2-yl)-3,5-di(thiophen-2-yl)-1H-pyrazole] | 62.5 (≈ 189 µM) | 500 (≈ 1510 µM) | 250 (≈ 754 µM) | >1 |  | > 500 | > 500 | > 500 | 62.5 (≈ 189 µM) | >4 | > 500 | 125 (≈ 377 µM) | 125 (≈ 377 µM) |  | fungistatic |  |
| O=C1CCSC(N2N=C(c3cccs3)CC2c2cccs2)=N1 (stereo not shown) [10a, 5,6-Dihydro-2-(4,5-dihydro-3,5-di(thiophen-2-yl)pyrazol-1-yl)-1,3-thiazin-4-one] | 62.5 (≈ 180 µM) | 125 (≈ 360 µM) | 125 (≈ 360 µM) | 4 | ~16 fold | 125 (≈ 360 µM) | 31.2 (≈ 89.9 µM) | 31.2 (≈ 89.9 µM) | 31.2 (≈ 89.9 µM) | 4 | 250 (≈ 719 µM) | 62.5 (≈ 180 µM) | 62.5 (≈ 180 µM) | bactericidal |  |  |
| O=C1CSC(N2N=C(c3cccs3)CC2c2cccs2)=N1 (stereo not shown) [6a, 2-(4,5-Dihydro-3,5-di(thiophen-2-yl)pyrazol-1-yl)thiazol-4(5H)-one] | 125 (≈ 375 µM) | 125 (≈ 375 µM) | 250 (≈ 750 µM) | 4 |  | 250 (≈ 750 µM) | 62.5 (≈ 187 µM) | 62.5 (≈ 187 µM) | 31.2 (≈ 93.7 µM) | 4 | 250 (≈ 750 µM) | 62.5 (≈ 187 µM) | 62.5 (≈ 187 µM) | bactericidal |  |  |
| OC(Cn1cncn1)(Cn1cncn1)c1ccc(F)cc1F [fluconazole, reference compound] |  |  |  |  |  |  |  |  |  | 1 | 250 (≈ 816 µM) | 250 (≈ 816 µM) | 250 (≈ 816 µM) |  |  |  |
| COc1ccc(OC)c(C=C2SC(N3N=C(c4cccs4)CC3c3cc(OC)ccc3OC)=NC2=O)c1 (stereo not shown) [8d, 5-(2,5-Dimethoxybenzylidene)-2-(4,5-dihydro-5-(2,5-dimethoxyphenyl)-3-(thiophen-2-yl)pyrazol-1-yl)thiazol-4(5H)-one] | 125 (≈ 233 µM) | 125 (≈ 233 µM) | 62.5 (≈ 117 µM) | 2 |  | 125 (≈ 233 µM) | 62.2 (≈ 116 µM) | 62.2 (≈ 116 µM) | 31.2 (≈ 58.3 µM) | 2 | 125 (≈ 233 µM) | 62.5 (≈ 117 µM) | 62.5 (≈ 117 µM) | bactericidal |  |  |
| NNC(=O)c1ccncc1 [isoniazid, reference compound] |  |  |  |  |  |  |  |  | 0.12 (≈ 0.875 µM) |  |  |  |  |  |  |  |
